Results published in patent publication US11952364B2, “TRK inhibitors useful as anticancer drugs” (TYLIGAND BIOSCIENCE (SHANGHAI) LIMITED, priority 2018, dated 2024).

Test system: Ba/F3 ETV6-NTRK3 cells
Assay: Proliferation of Ba/F3 ETV6-NTRK3 cells (CellTiter-Glo)
Assay type: cell-based
Conditions: Mus musculus, BaF3; Table 3; 72 hours
Description: Ba/F3 ETV6-NTRK3 is a stable transgenic cell line constructed by KYinno Biotechnology Co., Ltd. on mouse primary B cell Ba/F3 wherein NTRK3 is highly expressed and fused with ETV6 to form ETV6-NTRK3. • [Test method]: Promega's CellTiter-Glo® Luminescent Cell Viability Assay kit was used to evaluate the inhibitory activity of the compounds on the proliferation of Ba/F3 ETV6-NTRK3 cells. • [Instrument]: Spectramax M3 multifunctional microplate reader from Molecular Devices. • [Test materials]: Ba/F3 ETV6-NTRK3 cell line (constructed by KYinno Biotechnology Co., Ltd. (Beijing)), 96-well transparent flat-bottomed black-walled cell culture plate (Corning, cat #3603), RPMI-1640 media (GE, cat #SH30027.01), fetal bovine serum FBS (Thermo Fisher, cat #10099-141), CellTiter-Glo® Luminescent Cell Viability Assay kit (Promega, cat #G7572), PBS (Solarbio, cat #P1020), DMSO (Sigma, cat #D2650). • [Experimental procedure]: When resuscitating Ba/F3 ETV6-NTRK3 cells, the freezing tube was quickly shaken in a 37° C. water bath to melt within 1 minute. The thawed cell suspension was mixed uniformly with RPMI1640 medium containing 10% FBS, centrifuged at 1000 rpm for 5 minutes, and the supernatant discarded. 5 mL of complete medium (RPMI1640 medium with 10% FBS) was taken to resuspend the cell pellets, charged into a cell culture flask with a bottom area of 25 cm^2, and incubated in a cell incubator at 37° C., 95% humidity and 5% CO2. Cells were allowed to passage when the number of cells reached about 10^6 cells/mL. For cell passage, the old cell suspension was directly pipetted evenly, 1/5 of the cell suspension was kept, 4 mL of new complete medium was added, after pipetting evenly, the cell flask was placed in the cell incubator for further culturing. Cell plating was performed when the number of cells reached about 10^6 cells/mL again. For cell plating, 1/5 of the cell suspension was kept for further culturing as in the cell passage method, and the remaining 4/5 of the cell suspension was placed in a 15 mL centrifuge tube, detected for cell viability by Trypan blue exclusion method to ensure that cell viability was above 90%. A cell suspension with a density of 5.56×10^4 viable cells/mL was prepared with complete medium, and 90 μL of such cell suspension was added to a 96-well cell culture plate to obtain the cell density of 5000 viable cells/mL in the cell culture plate. A control group containing no cells, no compound and only complete medium (i.e. culture medium control) and a control group containing no compound but containing cells (i.e. cell control) were set. The cell plate was placed in a cell incubator overnight. The 10 mM compound stock solution in DMSO was first serially diluted with DMSO at a dilution factor of 3.16 times, to obtain 9 concentrations, and the 10th concentration was set as DMSO control without compound. Then, PBS was used to dilute the DMSO solutions of compounds of different concentrations, at a dilution factor of 100 times, so that the DMSO concentration in the compound solution of each concentration was 1%. Finally, 10 μL of each of the above solutions was added to the corresponding cell culture plate, so that the initial compound concentration was 10 μM, with the remaining concentrations being successively diluted at a dilution factor of 3.16 times, and the DMSO content in the cell culture plate was 0.1%. The cell plate was placed in a cell incubator and cultured for 72 hours. For endpoint detection, the CellTiter-Glo reagent was melted, and the cell plate was moved to room temperature to equilibrate for 30 minutes, added with 100 μL of CellTiter-Glo for each well, and shaken on an orbital shaker for 5 minutes to fully lyse the cells. The plate was kept at room temperature for 20 minutes to stabilize the luminescence signal, and the luminescence value of each well was scanned with a multi-functional microplate reader at full wavelength. • [Test samples]

Compound | IC50
O=C(Nc1cnn2ccc(N3CCC[C@@H]3c3cc(F)ccc3F)nc12)N1CC[C@H](O)C1 [LOXO-101, Larotrectinib, reference compound] | 5 nM
CC(C)c1ccc(C(=O)Nc2ccc(Oc3cc4cnn(C)c4cc3-c3cn[nH]c3)c(F)c2)c(=O)n1-c1ccc(F)cc1 [Example 6, N-(3-fluoro-4-(1-methyl-6-(1H-pyrazol-4-yl)-1H-indazol-5-yloxy)phenyl)-1-(4-fluorophenyl)-6-isopropyl-2-oxo-1,2-dihydropyridine-3-carboxamide] | 284 nM
CCc1ccc(C(=O)Nc2ccc(Oc3cc4cnn(C)c4cc3-c3cn[nH]c3)c(F)c2)c(=O)n1-c1ccc(F)cc1 [Example 5, N-(3-fluoro-4-(1-methyl-6-(1H-pyrazol-4-yl)-1H-indazol-5-yloxy)phenyl)-1-(4-fluorophenyl)-6-ethyl-2-oxo-1,2-dihydropyridine-3-carboxamide] | 60 nM
Cn1ncc2cc(Oc3ccc(NC(=O)c4ccc(C5CC5)n(-c5ccc(F)cc5)c4=O)cc3F)c(-c3cn[nH]c3)cc21 [Example 2, N-(3-fluoro-4-(1-methyl-6-(1H-pyrazol-4-yl)-1H-indazol-5-yloxy)phenyl)-1-(4-fluorophenyl)-6-cyclopropyl-2-oxo-1,2-dihydmpyridine-3-carboxamide] | 94 nM
CCn1ncc2cc(Oc3ccc(NC(=O)c4ccc(C)n(-c5ccc(F)cc5)c4=O)cc3F)c(-c3cn[nH]c3)cc21 [Example 3, N-(3-fluoro-4-(1-ethyl-6-(1H-pyrazol-4-yl)-1H-indazol-5-yloxy)phenyl)-1-(4-fluorophenyl)-6-methyl-2-oxo-1,2-dihydmpyridine-3-carboxamide] | 663 nM
Cc1ccc(C(=O)Nc2ccc(Oc3cc4cnn(C(C)C)c4cc3-c3cn[nH]c3)c(F)c2)c(=O)n1-c1ccc(F)cc1 [Example 4, N-(3-fluoro-4-(1-isopropyl-6-(1H-pyrazol-4-yl)-1H-indazol-5-yloxy)phenyl)-1-(4-fluorophenyl)-6-methyl-2-oxo-1,2-dihydmpyridine-3-carboxamide] | 762 nM
Cn1ncc2cc(Oc3ccc(NC(=O)c4ccc(C(F)(F)F)n(-c5ccc(F)cc5)c4=O)cc3F)c(-c3cn[nH]c3)cc21 [Example 1, N-(3-fluoro-4-(1-methyl-6-(1H-pyrazol-4-yl)-1H-indazol-5-yloxy)phenyl)-1-(4-fluorophenyl)-6-trifluoromethyl-2-oxo-1,2-dihydmpyridine-3-carboxamide monomethanesulfonate] | 435 nM
Cc1ccc(C(=O)Nc2ccc(Oc3cc4cnn(C)c4cc3-c3cn[nH]c3)c(F)c2)c(=O)n1-c1ccc(F)cc1 [Merestinib, reference compound] | 684 nM
